Molecular target: T1, human organic cation transporter 3 (hOCT3) (Homo sapiens, UniProt O75751)
T1 construct: expressed in transfected cells; host or cells: HEK293
T1 sequence (O75751 1-556): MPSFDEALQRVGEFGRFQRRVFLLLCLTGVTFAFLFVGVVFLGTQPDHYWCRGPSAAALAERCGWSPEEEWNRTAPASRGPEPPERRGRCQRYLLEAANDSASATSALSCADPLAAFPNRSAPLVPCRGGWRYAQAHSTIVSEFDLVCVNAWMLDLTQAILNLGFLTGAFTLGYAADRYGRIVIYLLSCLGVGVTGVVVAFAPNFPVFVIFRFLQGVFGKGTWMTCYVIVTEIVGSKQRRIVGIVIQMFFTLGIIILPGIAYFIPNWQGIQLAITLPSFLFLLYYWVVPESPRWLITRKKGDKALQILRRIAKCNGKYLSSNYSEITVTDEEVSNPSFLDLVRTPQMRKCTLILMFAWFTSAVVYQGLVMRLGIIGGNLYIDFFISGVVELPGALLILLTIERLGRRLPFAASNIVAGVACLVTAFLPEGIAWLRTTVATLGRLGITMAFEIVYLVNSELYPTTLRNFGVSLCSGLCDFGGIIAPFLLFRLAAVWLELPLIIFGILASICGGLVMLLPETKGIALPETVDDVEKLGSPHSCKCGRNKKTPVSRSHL
Assay: Histamine incorporation experiment in HEK293 cells expressing hOCT3 (OCT3 inhibition activity)
Assay type: cell-based
Conditions: for OCT3 Inhibition Rate (%): Tables 3-1 to 3-15, in a manner similar to Example 12 (30 μM there), concentration not given in the tables; for remaining activity at 30 µM: HEK293, 1 min, [3H]histamine 100 nM, 1 minute, no inhibitor = 100%, read-out: Histamine Incorporation Rate to Control (%); for remaining activity at 30 µM / inhibition at 30 µM: Compound Concentration 30 μM; for inhibition at 30 µM: HEK293, 100% minus histamine incorporation rate
Procedure: In order to measure an activity that inhibits OCT3 from incorporating a substrate (OCT3 inhibition activity) for each compound, histamine incorporation experiments as described below were performed.
Histamine incorporation experiments were performed in accordance with a method disclosed in Br J Pharmacol. 2002; 136(6): 829-836. In the experiments, HEK293 cells were used. The HEK293 cell is a human embryonal renal cell strain expressing human organic cation transporter 3 (hOCT3). The HEK 293 cells were inoculated onto 24-well plates at 1.5×10^5 cells/well, and were cultivated overnight in a carbon dioxide incubator. Test substances were dissolved in 100% DMSO solution and then dissolved in HBSS-HEPES solution (buffer solution prepared by dissolving 9.7 g Hank's Balanced Salt, 1.4% sodium bicarbonate 25 mL, and 1M HEPES 25 mL in 940 mL ultra pure water, and by adjusting to pH7.4 with 1M sodium hydroxide). After removing culture media for cell culture, pretreatment was performed for 5 minutes with 1 mL HBSS-HEPES solution. Then, the test substance and [3H]histamine (final concentration 100 nM) were added to the cells and reacted for 1 minute at room temperature. After the reaction was completed, the reaction was stopped by ice-cooled HBSS-HEPES solution, extracellular fluid was aspirated by an aspirator, and then the cells were washed twice with HBSS-HEPES. After washing, the cells were dissolved in 0.5M sodium hydroxide solution. The amount of histamine in the cells was found by measuring a radioactivity in a cell lysis solution by a liquid scintillation counter. Protein content in the cells was measured by Lowry method (J Biol Chem. 1951; 193(1): 265-75) by using the cell lysis solution, and translated into histamine incorporation amount per protein content for each experiment. A histamine incorporation rate (%) in the presence of 30 μM of the test substance was calculated by regarding a histamine incorporation amount in a case of no incorporation inhibitor as 100% (control) of histamine incorporation rate. A value (%) obtained by subtracting the histamine incorporation rate from 100(%) was calculated as an OCT3 inhibition rate (%).
Note that a histamine incorporation rate (%) in the presence of 10 μM of the test substance was calculated by regarding a histamine incorporation amount in a case of no incorporation inhibitor as 100% (control) of histamine incorporation rate. A value (%) obtained by subtracting the histamine incorporation rate from 100(%) was calculated as an OCT3 inhibition rate (%). […]

OCT3 Inhibition Rate (%)	remaining activity at 30 µM	inhibition at 30 µM	SMILES
−1.4%			N=C(N)NCc1csc(N=C(N)N)n1 [SR-2236]
47.2%			NC(N)=Nc1nc(CSc2ccc(F)cc2)cs1 [SR-3123]
20.6%			NC(N)=Nc1nc(COCc2ccc(F)cc2)cs1 [SR-3129]
22.3%			NC(N)=Nc1nc(CCCc2ccc(F)cc2)cs1 [SR-3131]
28.6%			NC(N)=Nc1nc(CNCCc2ccc(F)cc2)cs1 [SR-3136]
33.3%			NC(N)=Nc1nc(CSCCc2ccc(F)cc2)cs1 [SR-3137]
−11.5%			N=C(NCc1csc(N=C(N)N)n1)NS(N)(=O)=O [SR-3154]
−10.3%			NC(N)=Nc1nc(CS/C(N)=N\S(N)(=O)=O)cs1 [SR-3155]
6.2%			NC(N)=Nc1nc(CS/C(N)=N/S(=O)(=O)C(F)(F)F)cs1 [SR-3159]
22.2%			NC(N)=Nc1ncc(CSCCC(N)=NS(=O)(=O)c2ccccc2)s1 [SR-3203]
43.0%			CCCCN/C(N)=N/c1nc(CSCCC(=N)N)cs1 [SR-3209]

Continued, compound first:

SMILES	OCT3 Inhibition Rate (%)	remaining activity at 30 µM	inhibition at 30 µM
CSc1nc(CSCCC(N)=NS(N)(=O)=O)cs1 [SR-2227]	13.8%		
Cc1nc(CSCC/C(N)=N/S(N)(=O)=O)cs1 [SR-2228]	17.6%		
NC(N)=Nc1cc(CSCCC(N)=NS(N)(=O)=O)ccn1 [SR-2229]		55.8%	44.2%
NC(N)=Nc1cccc(CSCCC(N)=NS(N)(=O)=O)n1 [SR-2230]		41.4%	58.6%
N=C(N)CCSCc1ccc([N+](=O)[O-])o1 [SR-2233]	4.7%		
N=C(N)CCSCc1ccc([N+](=O)[O-])n1Cc1ccccc1 [SR-2234]	50.2%		
Cc1nc(CCSCc2ccc([N+](=O)[O-])n2Cc2ccccc2)[nH]c(=O)c1CCc1ccccc1 [SR-2235]	8.7%		
Cc1nc(CSCC/C(N)=N/S(=O)(=O)C(F)(F)F)cs1 [SR-2238]	−7.4%		
Cc1nc(CSCCc2nc(=O)c(CCc3ccccc3)c(C)[nH]2)cs1 [SR-2239]	33.2%		
NC(CCSCc1cscn1)=NS(N)(=O)=O [SR-3001]	−14.7%		
NC(CCSCc1cscn1)=NS(=O)(=O)C(F)(F)F [SR-3002]	−0.2%		
Cc1[nH]c(CCSCc2cscn2)nc(=O)c1CCc1ccccc1 [SR-3003]	40.6%		
CSc1nc(CSCCC(N)=NS(=O)(=O)C(F)(F)F)cs1 [SR-3012]	−8.1%		
CC(C)c1nc(CSCCC(N)=NS(=O)(=O)C(F)(F)F)cs1 [SR-3021]	−4.0%		
N=C(N)CCSCc1csc(N=C2NCCN2)n1 [SR-3208]	8.7%		
